Reference: article PMC8632988, “Inhibition of SYK and cSrc kinases can protect bone and cartilage in preclinical models of osteoarthritis and rheumatoid arthritis” (Scientific Reports, 2021)
Where “and” joins values, the source holds several entries; their conditions need not be identical. Identical values can stand only once. Like-named read-outs stand apart in the source and are kept apart here.

How the values were obtained:
SYK = SYK (Homo sapiens, UniProt P43405); test: SYK inhibition radiometric assay; assay type: biochemical; set-up: 6xHis; GST; purchased EMD Millipore Corporation (UK), assay service; host or cells: Sf21
Description: Radiometric assay was performed at EMD Millipore Corporation (UK) by measuring the extent of substrate phosphorylation by 6xHis-SYK (expressed in Sf21 cells) using the standard protocol.

[1] = Pharmacokinetics after single oral administration to rats; assay type: in vivo, rat; conditions: male Wistar rats; for AUCINF / AUClast / Cmax / Terminal t1/2 / concentration at 0.25 h / concentration at 0.5 h / concentration at 1 h / concentration at 2 h / concentration at 4 h / concentration at 8 h / concentration at 24 h / concentration at 48 h: plasma; for concentration at 0.25 h / concentration at 0.5 h / concentration at 1 h / concentration at 2 h / concentration at 4 h / concentration at 8 h / concentration at 24 h / concentration at 48 h: male, Wistar, rat, oral
Description: Experiments were performed at ChemPartner, Shanghai, China and approved by Institutional Ethics Committee (IEC) of ChemPartner. Male Wistar 10–12 weeks old rats with body weights of 185–220 g and male New Zealand rabbits with body weights of 2.0–2.3 kg were purchased from Shanghai SLAC Laboratory Animal Co., Ltd. MT-SYK-03 was administered to the three groups of rats (six rats per group) via oral gavage at 10 mL/kg concentration, and in rabbits 5 mL/kg concentration. Blood samples were kept on ice and centrifuged (2000 g, 4 ℃, 5 min) within 15 min post sampling.

[2] = Table S6, 100 mg/kg PO, individual Rat#1-6
[3] = Table S7, 100 mg/kg PO, individual Rat#7-12
[4] = Table S8, 200 mg/kg PO, individual Rat#13-18

COc1cc(Nc2ncnc(Nc3cc4c(cn3)NC(=O)C(C)(C)O4)n2)cc(OC)c1OC [MT-SYK-03]
IC50 (SYK): 40 ± 4 nM | Plasma concentration ([1]; Table S6, 100 mg/kg PO, 0.25 h, individual Rat#1-6): 257 ng/mL and 127 ng/mL and 313 ng/mL and 251 ng/mL and 240 ng/mL and 283 ng/mL | Plasma concentration ([1]; Table S6, 100 mg/kg PO, 0.5 h, individual Rat#1-6): 331 ng/mL and 166 ng/mL and 419 ng/mL and 280 ng/mL and 345 ng/mL and 375 ng/mL | Plasma concentration ([1]; Table S6, 100 mg/kg PO, 1 h, individual Rat#1-6): 470 ng/mL and 220 ng/mL and 487 ng/mL and 367 ng/mL and 392 ng/mL and 483 ng/mL | Plasma concentration ([1]; Table S6, 100 mg/kg PO, 2 h, individual Rat#1-6): 529 ng/mL and 209 ng/mL and 501 ng/mL and 372 ng/mL and 256 ng/mL and 359 ng/mL | Plasma concentration ([1]; Table S6, 100 mg/kg PO, 4 h, individual Rat#1-6): 196 ng/mL and 78.0 ng/mL and 171 ng/mL and 170 ng/mL and 226 ng/mL and 206 ng/mL | Plasma concentration ([1]; Table S6, 100 mg/kg PO, 8 h, individual Rat#1-6): 47.2 ng/mL and 31.2 ng/mL and 92.6 ng/mL and 41.6 ng/mL and 88.8 ng/mL and 43.5 ng/mL | Plasma concentration ([1]; Table S6, 100 mg/kg PO, 24 h, individual Rat#1-6): 0.818 ng/mL and BQL (2×) and 17.7 ng/mL and 1.57 ng/mL and 16.5 ng/mL | Plasma concentration ([1]; Table S6, 100 mg/kg PO, 48 h, individual Rat#1-6): BQL (4×) and 1.55 ng/mL | AUCINF [1, 2]: 2434 ng·h/mL and 971 ng·h/mL and 3948 ng·h/mL and 2253 ng·h/mL and 2452 ng·h/mL and 2451 ng·h/mL | AUClast [1, 2]: 2423 ng·h/mL and 869 ng·h/mL and 3933 ng·h/mL and 2069 ng·h/mL and 2446 ng·h/mL and 2297 ng·h/mL | Cmax [1, 2]: 529 ng/mL and 220 ng/mL and 501 ng/mL and 372 ng/mL and 392 ng/mL and 483 ng/mL | Terminal t1/2 [1, 2]: 7.83 h and 2.28 h and 6.60 h and 7.22 h and 2.78 h and 6.45 h | Plasma concentration ([1]; Table S7, 100 mg/kg PO, 8 h, individual Rat#7-12): 87.7 ng/mL and 152 ng/mL and 64.3 ng/mL and 178 ng/mL and 89.2 ng/mL and 82.6 ng/mL | Plasma concentration ([1]; Table S7, 100 mg/kg PO, 24 h, individual Rat#7-12): 32.8 ng/mL and 4.94 ng/mL and 6.04 ng/mL and 1.11 ng/mL and 1.56 ng/mL | Plasma concentration ([1]; Table S7, 100 mg/kg PO, 48 h, individual Rat#7-12): BQL | AUCINF [1, 3]: 4850 ng·h/mL and 3276 ng·h/mL and 4883 ng·h/mL and 4456 ng·h/mL and 3930 ng·h/mL | AUClast [1, 3]: 4843 ng·h/mL and 3238 ng·h/mL and 4878 ng·h/mL and 4452 ng·h/mL and 3910 ng·h/mL | Cmax [1, 3]: 1030 ng/mL and 770 ng/mL and 859 ng/mL and 876 ng/mL and 824 ng/mL | Terminal t1/2 [1, 3]: 5.58 h and 4.86 h and 3.71 h and 2.36 h and 2.34 h and 5.52 h | Plasma concentration ([1]; Table S8, 200 mg/kg PO, 48 h, individual Rat#13-18): BQL | AUCINF [1, 4]: 6063 ng·h/mL and 6845 ng·h/mL and 7115 ng·h/mL and 6299 ng·h/mL and 10096 ng·h/mL | AUClast [1, 4]: 6055 ng·h/mL and 6836 ng·h/mL and 7107 ng·h/mL and 6076 ng·h/mL and 10087 ng·h/mL | Cmax [1, 4]: 1430 ng/mL and 1360 ng/mL and 1370 ng/mL and 998 ng/mL and 1320 ng/mL | Terminal t1/2 [1, 4]: 6.31 h and 5.70 h and 2.52 h and 2.40 h and 8.67 h and 4.91 h | concentration at 0.25 h ([1]; 100 mg/kg, Table S6, 100 mg/kg PO, 0.25 h, mean of Rat#1-6, read-out: Plasma concentration, Mean): 245 ng/mL | concentration at 0.5 h ([1]; 100 mg/kg, Table S6, 100 mg/kg PO, 0.5 h, mean of Rat#1-6, read-out: Plasma concentration, Mean): 319 ng/mL | concentration at 1 h ([1]; 100 mg/kg, Table S6, 100 mg/kg PO, 1 h, mean of Rat#1-6, read-out: Plasma concentration, Mean): 403 ng/mL | concentration at 2 h ([1]; 100 mg/kg, Table S6, 100 mg/kg PO, 2 h, mean of Rat#1-6, read-out: Plasma concentration, Mean): 371 ng/mL | concentration at 4 h ([1]; 100 mg/kg, Table S6, 100 mg/kg PO, 4 h, mean of Rat#1-6): 175 ng/mL | concentration at 8 h ([1]; 100 mg/kg, Table S6, 100 mg/kg PO, 8 h, mean of Rat#1-6): 57.5 ng/mL | concentration at 24 h ([1]; 100 mg/kg, Table S6, 100 mg/kg PO, 24 h, mean of Rat#1-6): 9.15 ng/mL | concentration at 48 h ([1]; 100 mg/kg, Table S6, 100 mg/kg PO, 48 h, individual Rat#1-6, read-out: Plasma concentration): 0.984 ng/mL | concentration at 48 h ([1]; 100 mg/kg, Table S6, 100 mg/kg PO, 48 h, mean of Rat#1-6, read-out: Plasma concentration, Mean): 1.27 ng/mL | concentration at 0.25 h ([1]; 100 mg/kg, Table S7, 100 mg/kg PO, 0.25 h, individual Rat#7-12, read-out: Plasma concentration): 400 ng/mL | concentration at 0.25 h ([1]; 100 mg/kg, Table S7, 100 mg/kg PO, 0.25 h, mean of Rat#7-12, read-out: Plasma concentration, Mean): 415 ng/mL | concentration at 0.5 h ([1]; 100 mg/kg, Table S7, 100 mg/kg PO, 0.5 h, individual Rat#7-12, read-out: Plasma concentration): 716 ng/mL | concentration at 0.5 h ([1]; 100 mg/kg, Table S7, 100 mg/kg PO, 0.5 h, mean of Rat#7-12, read-out: Plasma concentration, Mean): 679 ng/mL | concentration at 1 h ([1]; 100 mg/kg, Table S7, 100 mg/kg PO, 1 h, individual Rat#7-12, read-out: Plasma concentration): 830 ng/mL | concentration at 1 h ([1]; 100 mg/kg, Table S7, 100 mg/kg PO, 1 h, mean of Rat#7-12, read-out: Plasma concentration, Mean): 870 ng/mL | concentration at 2 h ([1]; 100 mg/kg, Table S7, 100 mg/kg PO, 2 h, individual Rat#7-12, read-out: Plasma concentration): 519 ng/mL | concentration at 2 h ([1]; 100 mg/kg, Table S7, 100 mg/kg PO, 2 h, mean of Rat#7-12, read-out: Plasma concentration, Mean): 602 ng/mL | concentration at 4 h ([1]; 100 mg/kg, Table S7, 100 mg/kg PO, 4 h, mean of Rat#7-12): 384 ng/mL | concentration at 8 h ([1]; 100 mg/kg, Table S7, 100 mg/kg PO, 8 h, mean of Rat#7-12): 109 ng/mL | concentration at 24 h ([1]; 100 mg/kg, Table S7, 100 mg/kg PO, 24 h, mean of Rat#7-12): 8 ng/mL | concentration at 48 h ([1]; 100 mg/kg, Table S7, 100 mg/kg PO, 48 h, mean of Rat#7-12, read-out: Plasma concentration, Mean): 1.79 ng/mL | concentration at 0.25 h ([1]; 200 mg/kg, Table S8, 200 mg/kg PO, 0.25 h, individual Rat#13-18, read-out: Plasma concentration): 489 ng/mL | concentration at 0.25 h ([1]; 200 mg/kg, Table S8, 200 mg/kg PO, 0.25 h, mean of Rat#13-18, read-out: Plasma concentration, Mean): 425 ng/mL | concentration at 0.5 h ([1]; 200 mg/kg, Table S8, 200 mg/kg PO, 0.5 h, individual Rat#13-18, read-out: Plasma concentration): 858 ng/mL | concentration at 0.5 h ([1]; 200 mg/kg, Table S8, 200 mg/kg PO, 0.5 h, mean of Rat#13-18, read-out: Plasma concentration, Mean): 892 ng/mL | concentration at 1 h ([1]; 200 mg/kg, Table S8, 200 mg/kg PO, 1 h, individual Rat#13-18, read-out: Plasma concentration): 984 ng/mL | concentration at 1 h ([1]; 200 mg/kg, Table S8, 200 mg/kg PO, 1 h, mean of Rat#13-18, read-out: Plasma concentration, Mean): 1220 ng/mL | concentration at 2 h ([1]; 200 mg/kg, Table S8, 200 mg/kg PO, 2 h, individual Rat#13-18, read-out: Plasma concentration): 1180 ng/mL
